Measurements: article PMC9500072, “Topical application of an irreversible small molecule inhibitor of lysyl oxidases ameliorates skin scarring and fibrosis” (Nature Communications, 2022)
Where “and” joins values, the source holds several entries; their conditions need not be identical. Equal entries are not always repeated.

How the values were obtained:
[1] = tested on: primary human fibroblasts; assay: Collagen crosslinking in vitro, scar-in-a-jar, LC-MS/MS; type: cell-based; design: PYD: unit not given beside the values; HLNL / DHLNL / DPD: unit not given here; conditions: 11 days, biological replicates
Procedure: To determine the effects of PXS-4787 on collagen cross-link formation, primary human fibroblasts from six different participants (six biological replicates) were cultured for 11 days using ‘scar-in-a-jar’ conditions in the presence of 0, 1, and 10 µM of inhibitor. Liquid chromatography with tandem mass spectrometry (LC-MS/MS) was used to measure hydroxyproline and cross-link concentrations in these samples. Hydroxyproline concentration provides a close estimate of collagen concentration as it is present in high concentrations in collagens and is critical to fibril formation.
Primary scar fibroblasts were seeded in a complete media at density 75 × 10^4 cells per well in a T-25 tissue culture flask at 37 °C and 5% CO2. After 16 h the complete media was replaced by the stimulated media ([…] Ficoll 70 and (25 mg/ mL) Ficoll 400, 5 ng/mL TGF-β1, 0.5% FBS, […] L-ascorbic acid-2-phosphate) in DMEM-Glutamax™ supplemented with 0.5% FBS and 1% Penicillin/ Streptomycin and 1 and 10 µM concentrations of PXS-4787 for 11 days to allow time for sufficient crosslinking of extracellular collagen. After 11 days, the media was aspirated and cells were trypsinized for 30 min and reduced with 12 mg/mL Sodium Borohydride in 20 mM Sodium Hydroxide solution followed and incubated for 30 min at room temperature. The pH of the solution was made acidic using 50 µL of neat acetic acid. The solution was centrifuged at 20,000g for 15 min at 4 °C followed by three washes with MilliQ water and samples processed for crosslinking analysis.
Cell pellets or isolated tissue samples were completely hydrolyzed in 1.5 mL 6 M hydrochloric acid for 24 h at 105 °C. After complete hydrolysis, samples were dried using a vacuum dryer and reconstituted using 200 µL MilliQ water. The sample clean-up was performed using solid-phase extraction method which uses C18 and SCX solid-phase extraction cartridges for sample purification. The samples were run on UPLC-MS-MS (Mass Spectrometer: Thermo Scientific TSQ Endura Triple quadrupole, UPLC: Thermo Scientific Dionex UltiMate 3000) using Agilent RRHD SB-C18,2.1x50mm,1.8um analytical column and solvent A: 10 mM ammonium formate, 0.1% formic acid, 0.1% HFBA in H2O and solvent B: 10 mM ammonium formate, 0.1% formic acid, 0.1% HFBA in MeOH and analyzed as previously described. Limits of detection are listed in Supplementary Table S4.

keratinocytes = assay: RNASeq transcriptome analysis, keratinocytes; type: cell-based, human; conditions: 24 hrs of treatment
[2] = Stability in cream formulations; type: physicochemical
Adenosine A1 = Adenosine A1 (Homo sapiens, UniProt P30542); assay: Eurofins panel 200510; type: binding
Chain of Adenosine A1 (P30542 whole entry): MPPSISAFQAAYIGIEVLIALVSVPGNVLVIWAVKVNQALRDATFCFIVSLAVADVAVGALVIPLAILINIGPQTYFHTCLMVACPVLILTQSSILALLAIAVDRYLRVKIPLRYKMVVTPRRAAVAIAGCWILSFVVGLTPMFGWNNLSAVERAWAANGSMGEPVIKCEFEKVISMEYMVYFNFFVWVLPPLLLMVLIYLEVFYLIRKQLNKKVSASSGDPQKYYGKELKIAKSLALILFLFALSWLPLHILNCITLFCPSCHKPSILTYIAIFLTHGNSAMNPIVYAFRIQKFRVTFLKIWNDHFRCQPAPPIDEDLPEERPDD

Adenosine A3 = Adenosine A3 (Homo sapiens, UniProt P0DMS8); assay: Eurofins panel 200720; type: binding
Bradykinin B1 = Bradykinin B1 (Homo sapiens, UniProt P46663); assay: Eurofins panel 212510; type: binding
Calcium Channel N-Type = Calcium Channel N-Type (Rattus norvegicus, UniProt Q02294); assay: Eurofins panel 216000; type: binding
Chain of Calcium Channel N-Type (Q02294 whole entry): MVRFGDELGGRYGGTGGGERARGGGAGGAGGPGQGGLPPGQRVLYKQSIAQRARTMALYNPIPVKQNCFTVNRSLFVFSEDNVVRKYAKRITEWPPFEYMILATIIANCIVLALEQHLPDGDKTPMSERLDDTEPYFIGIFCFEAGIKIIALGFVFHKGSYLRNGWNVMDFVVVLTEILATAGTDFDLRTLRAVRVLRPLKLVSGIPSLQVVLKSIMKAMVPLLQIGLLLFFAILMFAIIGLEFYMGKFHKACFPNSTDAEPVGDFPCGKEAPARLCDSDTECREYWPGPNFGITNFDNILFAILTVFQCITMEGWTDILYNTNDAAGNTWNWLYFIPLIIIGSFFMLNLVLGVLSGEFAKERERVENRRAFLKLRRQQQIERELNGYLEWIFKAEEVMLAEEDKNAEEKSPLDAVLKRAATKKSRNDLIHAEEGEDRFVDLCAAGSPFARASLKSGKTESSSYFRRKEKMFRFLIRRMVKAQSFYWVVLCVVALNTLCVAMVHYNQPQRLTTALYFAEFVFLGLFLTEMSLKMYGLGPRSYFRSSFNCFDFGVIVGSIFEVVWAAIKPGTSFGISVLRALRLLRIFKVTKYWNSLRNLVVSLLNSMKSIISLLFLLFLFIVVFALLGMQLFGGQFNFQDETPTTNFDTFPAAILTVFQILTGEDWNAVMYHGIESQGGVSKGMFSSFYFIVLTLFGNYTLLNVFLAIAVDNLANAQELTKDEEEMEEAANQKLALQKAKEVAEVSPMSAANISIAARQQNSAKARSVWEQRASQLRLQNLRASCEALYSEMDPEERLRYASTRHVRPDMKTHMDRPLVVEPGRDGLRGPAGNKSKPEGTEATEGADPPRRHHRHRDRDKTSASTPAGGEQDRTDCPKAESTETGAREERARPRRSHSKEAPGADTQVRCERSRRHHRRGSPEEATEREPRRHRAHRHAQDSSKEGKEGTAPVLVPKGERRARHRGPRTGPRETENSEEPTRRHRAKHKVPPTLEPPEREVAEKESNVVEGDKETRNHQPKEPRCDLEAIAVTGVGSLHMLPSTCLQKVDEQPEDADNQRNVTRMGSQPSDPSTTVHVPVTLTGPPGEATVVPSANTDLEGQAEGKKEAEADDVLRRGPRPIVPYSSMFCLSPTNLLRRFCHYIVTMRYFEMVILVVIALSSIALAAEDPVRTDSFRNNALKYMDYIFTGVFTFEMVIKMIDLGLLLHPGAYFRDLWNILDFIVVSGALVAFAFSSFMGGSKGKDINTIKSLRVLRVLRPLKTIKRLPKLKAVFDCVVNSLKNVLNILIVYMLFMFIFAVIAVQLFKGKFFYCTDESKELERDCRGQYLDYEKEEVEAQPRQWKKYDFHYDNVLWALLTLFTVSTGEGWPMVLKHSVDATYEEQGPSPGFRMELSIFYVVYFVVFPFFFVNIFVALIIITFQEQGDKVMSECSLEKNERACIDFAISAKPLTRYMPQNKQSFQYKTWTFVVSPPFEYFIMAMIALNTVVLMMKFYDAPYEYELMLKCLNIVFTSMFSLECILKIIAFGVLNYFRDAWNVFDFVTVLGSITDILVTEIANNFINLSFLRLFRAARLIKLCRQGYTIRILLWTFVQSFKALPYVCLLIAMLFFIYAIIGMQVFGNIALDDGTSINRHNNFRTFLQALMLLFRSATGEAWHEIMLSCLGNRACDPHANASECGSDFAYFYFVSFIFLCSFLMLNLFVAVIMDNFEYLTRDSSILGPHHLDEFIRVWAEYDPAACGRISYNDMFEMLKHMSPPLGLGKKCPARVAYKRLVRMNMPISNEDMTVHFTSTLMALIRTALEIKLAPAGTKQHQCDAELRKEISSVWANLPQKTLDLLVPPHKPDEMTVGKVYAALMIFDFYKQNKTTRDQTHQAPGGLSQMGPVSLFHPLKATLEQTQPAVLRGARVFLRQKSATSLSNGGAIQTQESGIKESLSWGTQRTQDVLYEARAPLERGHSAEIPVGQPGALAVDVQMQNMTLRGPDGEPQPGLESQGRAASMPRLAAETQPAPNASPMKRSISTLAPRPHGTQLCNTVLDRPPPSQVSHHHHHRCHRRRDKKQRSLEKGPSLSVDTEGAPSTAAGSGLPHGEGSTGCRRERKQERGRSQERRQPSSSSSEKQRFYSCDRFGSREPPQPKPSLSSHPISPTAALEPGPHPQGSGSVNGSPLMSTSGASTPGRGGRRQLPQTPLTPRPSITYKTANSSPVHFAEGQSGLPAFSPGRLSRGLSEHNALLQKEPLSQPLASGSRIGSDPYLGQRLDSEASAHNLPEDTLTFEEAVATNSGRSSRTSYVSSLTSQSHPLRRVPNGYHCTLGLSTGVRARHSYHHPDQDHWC

GABAB1A = GABAB1A (Homo sapiens, UniProt Q9UBS5); assay: Eurofins panel 228610; type: binding
Neuropeptide Y Y1 = Neuropeptide Y Y1 (Homo sapiens, UniProt P25929); assay: Eurofins panel 257010; type: binding
Chain of Neuropeptide Y Y1 (P25929 whole entry): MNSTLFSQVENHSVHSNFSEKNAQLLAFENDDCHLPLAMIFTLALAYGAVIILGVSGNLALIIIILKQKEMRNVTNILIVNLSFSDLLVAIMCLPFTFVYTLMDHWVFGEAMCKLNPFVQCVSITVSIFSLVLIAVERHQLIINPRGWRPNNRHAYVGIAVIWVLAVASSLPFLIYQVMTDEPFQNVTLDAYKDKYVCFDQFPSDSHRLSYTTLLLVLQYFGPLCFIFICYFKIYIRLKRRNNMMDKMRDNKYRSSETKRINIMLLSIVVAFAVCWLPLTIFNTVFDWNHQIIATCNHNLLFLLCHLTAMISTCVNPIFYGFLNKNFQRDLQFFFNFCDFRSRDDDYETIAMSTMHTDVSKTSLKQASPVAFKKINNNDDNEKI

Neuropeptide Y Y2 = Neuropeptide Y Y2 (Homo sapiens, UniProt P49146); assay: Eurofins panel 257110; type: binding
Chain of Neuropeptide Y Y2 (P49146 whole entry): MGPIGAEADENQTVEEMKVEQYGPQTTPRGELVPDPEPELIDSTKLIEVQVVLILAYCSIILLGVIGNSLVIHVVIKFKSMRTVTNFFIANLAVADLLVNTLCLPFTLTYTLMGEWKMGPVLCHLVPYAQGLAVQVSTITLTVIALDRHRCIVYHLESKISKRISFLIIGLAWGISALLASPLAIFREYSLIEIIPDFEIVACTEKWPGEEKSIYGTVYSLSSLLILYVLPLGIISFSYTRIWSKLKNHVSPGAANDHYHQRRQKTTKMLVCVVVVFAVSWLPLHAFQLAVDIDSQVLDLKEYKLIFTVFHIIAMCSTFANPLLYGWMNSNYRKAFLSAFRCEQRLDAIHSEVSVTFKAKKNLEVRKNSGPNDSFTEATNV

Nicotinic Acetylcholine = assay: Eurofins panel 258590; type: binding, human; conditions: 10 µM
[3] = molecular target: Nicotinic Acetylcholine α1, Bungarotoxin (Homo sapiens, UniProt P02708+P07510+Q07001); assay: Eurofins panel 258700; type: binding; conditions: read-out: % Inh.
Phorbol Ester = assay: Eurofins panel 264500; type: binding, mouse; conditions: 10 µM
[4] = molecular target: Platelet Activating Factor (PAF) (Homo sapiens, UniProt P25105); assay: Eurofins panel 265010; type: binding
Purinergic P2X = assay: Eurofins panel 268700; type: binding, rabbit; conditions: 10 µM
Purinergic P2Y = assay: Eurofins panel 268810; type: binding, rat; conditions: 10 µM
Tachykinin NK1 = Tachykinin NK1 (Homo sapiens, UniProt P25103); assay: Eurofins panel 255520; type: binding
Chain of Tachykinin NK1 (P25103 whole entry): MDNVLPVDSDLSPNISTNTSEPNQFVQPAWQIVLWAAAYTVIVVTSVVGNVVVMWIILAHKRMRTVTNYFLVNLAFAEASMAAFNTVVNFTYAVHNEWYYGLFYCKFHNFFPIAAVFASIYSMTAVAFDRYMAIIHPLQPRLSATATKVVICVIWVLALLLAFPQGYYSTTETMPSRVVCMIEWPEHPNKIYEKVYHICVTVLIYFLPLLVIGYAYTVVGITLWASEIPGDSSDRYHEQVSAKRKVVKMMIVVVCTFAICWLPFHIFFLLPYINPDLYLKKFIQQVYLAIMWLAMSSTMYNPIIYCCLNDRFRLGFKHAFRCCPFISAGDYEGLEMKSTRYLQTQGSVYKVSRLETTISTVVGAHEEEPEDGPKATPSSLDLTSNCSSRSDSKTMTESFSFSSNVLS

Thyroid Hormone = assay: Eurofins panel 285900; type: binding, rat; conditions: 10 µM
LogD = type: physicochemical
[5] = Franz Cell skin permeability assay; type: in vitro ADME, human; conditions: 3% cream on epidermis of human skin ex vivo
Phosphodiesterase PDE4D2 = Phosphodiesterase PDE4D2 (Homo sapiens, UniProt Q08499); assay: Eurofins panel 154420; type: biochemical
Chain of Phosphodiesterase PDE4D2 (Q08499 303-809 limits assumed): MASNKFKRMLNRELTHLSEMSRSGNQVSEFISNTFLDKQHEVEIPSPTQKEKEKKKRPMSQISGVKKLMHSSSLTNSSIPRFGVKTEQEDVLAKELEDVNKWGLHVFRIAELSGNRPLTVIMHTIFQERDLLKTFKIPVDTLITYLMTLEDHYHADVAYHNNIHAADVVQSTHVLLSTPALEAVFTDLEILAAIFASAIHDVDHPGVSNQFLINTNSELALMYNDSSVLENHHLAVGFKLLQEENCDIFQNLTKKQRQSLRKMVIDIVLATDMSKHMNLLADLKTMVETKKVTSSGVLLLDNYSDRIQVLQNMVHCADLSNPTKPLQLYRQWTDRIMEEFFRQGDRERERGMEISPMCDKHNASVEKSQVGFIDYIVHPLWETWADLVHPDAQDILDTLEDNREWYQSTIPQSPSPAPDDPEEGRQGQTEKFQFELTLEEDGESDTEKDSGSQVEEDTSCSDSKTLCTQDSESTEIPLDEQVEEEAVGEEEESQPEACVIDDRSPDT

[6] = molecular target: Cholecystokinin CCK1 (CCKA) (Homo sapiens, UniProt P32238); assay: Eurofins panel 218030; type: binding
Chain of Cholecystokinin CCK1 (CCKA) (P32238 whole entry): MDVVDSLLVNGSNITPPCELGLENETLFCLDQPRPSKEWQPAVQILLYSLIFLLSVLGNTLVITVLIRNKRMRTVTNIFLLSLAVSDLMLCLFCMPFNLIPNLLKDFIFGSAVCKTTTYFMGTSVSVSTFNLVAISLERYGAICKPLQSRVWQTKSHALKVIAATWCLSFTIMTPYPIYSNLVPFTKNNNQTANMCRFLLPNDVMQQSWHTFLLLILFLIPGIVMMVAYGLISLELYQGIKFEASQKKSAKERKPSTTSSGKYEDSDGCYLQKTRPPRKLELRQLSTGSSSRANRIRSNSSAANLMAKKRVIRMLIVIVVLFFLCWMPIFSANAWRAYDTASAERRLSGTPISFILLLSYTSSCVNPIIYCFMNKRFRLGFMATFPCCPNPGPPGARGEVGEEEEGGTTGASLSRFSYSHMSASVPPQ

Potassium Channel [KA] = assay: Eurofins panel 265510; type: binding, rat; conditions: 30 µM
[7] = molecular target: Serotonin (5-Hydroxytryptamine) 5-HT1B (Homo sapiens, UniProt P28222); assay: Eurofins panel 271230; type: binding
Vasopressin V1A = Vasopressin V1A (Homo sapiens, UniProt P37288); assay: Eurofins panel 287530; type: binding
lysyl oxidases = tested on: lysyl oxidases; design: method as in ACTRN1262100322831; conditions: ref ACTRN1262100322831; cited from earlier work

NC/C=C(\F)CS(=O)(=O)c1ccccc1 [PXS-4787]
DHLNL ([1]; 1 µM): 143.775 and 329.16 and 113.02 and 83.13 and 359.48 and 365.16 and 104.82 | DPD ([1]; 1 µM): 2.93 and 49.66 and 7.64 and 1.83 and 44.6 and 15.94 and 5.96 | HLNL ([1]; 1 µM): 2792.14 and 4779.62 and 1377.5 and 1440.95 and 5514.92 and 6254.02 and 873.64 | HYP (hydroxyproline) ([1]; 1 µM): did not reduce and 100208 and 1106205 and 113032 and 54746.7 and 1239040 and 1208884 and 155115 | PYD ([1]; 1 µM): 26.445 and 138.7 and 33.16 and 18.555 and 194.48 and 107.58 and 32.22 | DHLNL ([1]; 10 µM): 74.25 and 254.16 and 91.76 and 55.65 and 288.12 and 246.36 and 90.12 | DPD ([1]; 10 µM): 0 and 24.22 and 4.54 and 21.2 and 6.56 and 3.9 | HLNL ([1]; 10 µM): trend reduction and 1564.75 and 3443.58 and 1107.32 and 1868.37 and 4501.9 and 4758.54 and 846.68 | HYP (hydroxyproline) ([1]; 10 µM): significantly (p = 0.0385) diminished and 52523.3 and 888147 and 121381 and 44633 and 1404421 and 949167 and 129547 | PYD ([1]; 10 µM): 5.86 and 65.12 and 17 and 7.95 and 92.68 and 46.62 and 20.6 | Log2 fold change LOC101927136 (keratinocytes): 3.918 | Log2 fold change TMOD1 (keratinocytes): 4.799 | stability in cream formulations [2]: some unwanted degradation occurred | inhibition at 10 µM (Adenosine A1): 1% | inhibition at 10 µM (Adenosine A3): 4% | inhibition at 10 µM (Bradykinin B1): 6% | inhibition at 10 µM (Calcium Channel N-Type): 0% | inhibition at 10 µM (GABAB1A): 6% | inhibition at 10 µM (Neuropeptide Y Y1): 0% | inhibition at 10 µM (Neuropeptide Y Y2): 0% | % Inh. (Nicotinic Acetylcholine): 1% | inhibition at 10 µM [3]: -3% | % Inh. (Phorbol Ester): 5% | inhibition at 10 µM [4]: -11% | % Inh. (Purinergic P2X): 8% | % Inh. (Purinergic P2Y): 2% | inhibition at 10 µM (Tachykinin NK1): 10% | % Inh. (Thyroid Hormone): 0%

NC/C=C(\F)C(F)(F)S(=O)(=O)c1ccccc1 [PXS-6302]
logD (LogD): 1 | further increase of concentration in reservoir chamber over the next 14 h [5]: 10 fold | increase of concentration in reservoir chamber between 2 and 6 h [5]: 10 fold | inhibition at 30 µM (Phosphodiesterase PDE4D2): 3% | inhibition at 30 µM [6]: 1% | % Inh. (Potassium Channel [KA]): 2% | inhibition at 30 µM [7]: -3% | inhibition at 30 µM (Vasopressin V1A): 3% | target engagement and inhibition in phase I trial (lysyl oxidases): strong target engagement and long-lasting inhibition
